Results as given in patent US6998240B2, “Screen for selective inhibitors or activators of Smad protein function” (Wisconsin Alumni Research Foundation, priority 2001, dated 2006).
Residues, ends and D or L forms follow the SMILES beside them.

How the values were obtained:
Smad2-P [1] = target: T1, Smad2-P (Homo sapiens, UniProt Q15796); experiment: HTRF assay of biotin-FAST peptide binding to Smad2-P (competition)
T1 construct: Smad2; 1–467; pBlueBac; His; made in house; host or cells: Sf9 insect cells (baculovirus), co-infected with virus for membrane-targeted human Alk5 T204D
Description: (§1) To establish HTRF assays for Smad protein interactions, we have used reagents from Wallac-Perkin Elmer and Packard that include Europium-cryptate coupled to α-His epitope tag antibody, α-GST antibody or Streptavidin. As acceptor fluorophores we have used allophycocyanin (Packard's XL665) coupled to Streptavidin or direct labeling of GST-fusion protein with IC5 (Dojindo). Reagents are mixed in a 50 microliter volume in the wells of a 384 Black non-treated microwell plate (Corning) and HTRF detected in a Wallac Victor V multimode plate reader. The reader detects emission at 615 nm from the Europium chelate donor and at 665 nm from the APC or IC5 acceptor. Background, cross-talk and high FRET wells can be indicated on the plate map to allow the machine to compute a normalized value as a ratio Rn=(ET/D) Dmax where ET=A−BI−(C×D). • A—Fluorescence at 665 nm • BI—Blank (buffer only) at 665 nm • D—Fluorescence at 615 nm • C—Cross-talk correction value calculated from wells containing only donor fluorophore • (from “Quench Correction for LANCE TR-FRET” by Perkin-Elmer Wallace)
(§2) Over the past several months we have developed three HTRF assays for Smad binding interactions. All three assays use a Eu-chelate α-His epitope tag antibody as the donor. The antibody recognizes the hexahistidine epitope tag on the Smad proteins produced in the baculovirus expression system described above. As acceptors, we have used Streptavidin conjugated to allophycocyanin (Packard) that binds to biotinylated peptides. The peptides are synthesized to comprise the Smad interaction domain motif from human FAST or c-Jun (FIG. 3). The FAST 24-mer amino acid sequence is based on the homology between FAST, Mixer and Milk reported by Germain and colleagues (Germain, S., et al., supra, 2000). The24-mer C-JUN sequence is based on studies using deletions and gene fragments to define the Smad interaction motif (Zhang, Y., et al., supra, 1998; Liberati, N. T. et al., Proc. Natl. Acad. Sci. USA 96:4844–9, 1999). We also have developed an HTRF assay using IC5-GST-CBP, a fusion protein comprising the Smad interaction domain motif from CBP (a generous gift of Dr. Yigong Shi, Princeton University).
(§3) The assays are done in a 50 μl volume in the well of a 384-well plate. The assay buffer, as recommended by Packard for their HTRF reagents is 50 mM K-Hepes pH 7.0, 400 mM KF and 0.1% BSA. The high concentration of KF is recommended for the Eu(K) reagents from Packard. […] We have also optimized through many titrations the amount of Smad protein (220 ng/well, ˜4 pmoles per well of monomer), the concentration of biotinylated peptide (1 uMolar for FAST and C-JUN), the amount of Eu-anti-His tag antibody (36 ng/well) and the amount of Streptactin-APC (0.5 μg/well).
We used the FAST-SmadP HTRF assay described above. […] After 1 hr at room temperature, Streptavidin-APC was added to each well and 30 minutes later the fluorescence emissions at 615 nm and 665 nm were read in a PE-Wallac Victor V.

[2] = target: Phosphorylated Smad2/4 Complex (Homo sapiens, UniProt Q15796); experiment: 96 well microplate solid phase binding assay of GST-CBP to phosphorylated Smad2/4 complex; design: Smad2; 1–467; pBlueBac; His; Smad4; 1–552; Strep; Strep-tag; made in house
Protocol: Table 7, below, tabulates the results of a 96 well Microplate Format Binding Assay of CBP to Smad2 and Phosphorylated Smad2/4 Complex. Duplicate wells are shown with indicated amounts of Smad protein bound per well. Three different dilutions of biotinylated GST-CBP protein were added per well and incubated at room temperture for 1 hour. Wells were washed 3× with TBS+1% tween and Alkaline phosphatase conjugated strepavidin (Tropix) added. Bound conjugate was detected by addition of the CSPD substrate (Tropix) and relative light units (RLU) measured in a Tropix 717 microplate reader at a read time of 1 second per well.

Smad2-P [3] = target: T1, Smad2-P; experiment: HTRF assay of IC5-GST-CBP binding to phosphorylated Smad2
Description: as §1, §2, §3
Table 5 contains data from using the GST-CBP fusion protein that is covalently coupled to the IC5 fluorophore acceptor through the cysteines in the GST portion of the fusion protein. There is no biotinylated peptide or Streptavidin-APC in these assays. […] The lower FRET counts could be due to larger distances between the donor and acceptor molecules in the complex. This might be overcome by using direct labeling of the Smad-P complex with Eu-cryptates rather than the Eu-labeled anti-His tag antibody.

CC[C@H](C)[C@H](NC(=O)[C@H](CC(N)=O)NC(=O)[C@@H](NC(=O)[C@H](CCCNC(=N)N)NC(=O)[C@H](Cc1ccc(O)cc1)NC(=O)[C@H](CC(C)C)NC(=O)[C@H](Cc1c[nH]cn1)NC(=O)[C@H](CCC(N)=O)NC(=O)[C@H](CCC(N)=O)NC(=O)[C@H](CCC(N)=O)NC(=O)[C@H](CCC(N)=O)NC(=O)[C@H](C)NC(=O)[C@H](CCC(=O)O)NC(=O)[C@H](CCCNC(=N)N)NC(=O)[C@H](CCC(=O)O)NC(=O)[C@@H](NC(=O)[C@H](CCC(N)=O)NC(=O)[C@H](CCCNC(=N)N)NC(=O)[C@H](C)NC(=O)[C@H](C)NC(=O)[C@H](CCC(=O)O)NC(=O)[C@@H](NC(=O)[C@H](C)N)C(C)C)[C@@H](C)CC)C(C)C)C(N)=O [CBP] (H-AVEAARQIEREAQQQQHLYRVNI-NH2; N-terminus assumed)
competition for Biotin-FAST binding to Smad-2P (in words) (Smad2-P [1]): inability | CBP bound by Smad-P complexes relative to an equivalent amount of unphosphorylated Smad [2]: > 30 fold | competition for binding with the GST-CBP fusion protein (in words) (Smad2-P [3]): can compete | Average Normalized Counts (Smad2-P [3]; 50 μM inhibitor peptide, IC5-GST-CBP binding to Smad2-P): 587 | remaining activity at 50 µM (Smad2-P [3]; 50 μM inhibitor peptide, IC5-GST-CBP binding to Smad2-P, read-out: Percent of Control (minus background)): 70% | Average Normalized Counts (Smad2-P [3]; 100 μM inhibitor peptide, IC5-GST-CBP binding to Smad2-P): 478 | remaining activity at 100 µM (Smad2-P [3]; 100 μM inhibitor peptide, IC5-GST-CBP binding to Smad2-P, read-out: Percent of Control (minus background)): 51% | IC50 (Smad2-P [3]; read-out: concentration of peptide for 50% inhibition of GST-CBP binding): 100 µM
